Source: ChEMBL document CHEMBL1152020, “Novel 2,5-disubstituted-1H-pyrroles with high affinity for the dopamine D3 receptor” (Bioorg Med Chem Lett, 1996)

Assays:
D(3) dopamine receptor = D(3) dopamine receptor (Homo sapiens, UniProt P35462); assay: Binding affinity towards human Dopamine receptor D3 expressed in CHO cells by [125I]iodosulpiride displacement.; assay type: cell-based
D(2) dopamine receptor = D(2) dopamine receptor (Homo sapiens, UniProt P14416); assay: Binding affinity towards human Dopamine receptor D2 expressed in CHO cells by [125I]iodosulpiride displacement.; assay type: cell-based
Sequence of D(2) dopamine receptor (P14416 whole entry): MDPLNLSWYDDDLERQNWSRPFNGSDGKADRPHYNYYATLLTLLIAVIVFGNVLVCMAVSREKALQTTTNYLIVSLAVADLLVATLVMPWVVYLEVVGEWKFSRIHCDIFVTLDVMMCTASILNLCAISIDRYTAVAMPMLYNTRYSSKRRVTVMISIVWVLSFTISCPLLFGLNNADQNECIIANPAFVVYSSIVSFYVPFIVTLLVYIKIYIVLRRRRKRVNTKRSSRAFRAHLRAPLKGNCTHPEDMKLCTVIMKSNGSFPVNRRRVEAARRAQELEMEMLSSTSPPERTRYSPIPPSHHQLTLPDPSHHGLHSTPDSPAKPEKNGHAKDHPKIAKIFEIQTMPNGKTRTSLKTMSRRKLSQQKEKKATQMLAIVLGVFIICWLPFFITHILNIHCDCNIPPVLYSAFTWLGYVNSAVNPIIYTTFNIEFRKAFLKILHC

[1] = target: Dopamine receptors; D2 & D3 (Homo sapiens) (UniProt P14416+P35462); assay: Selectivity at D3 compared to D2 receptors.; assay type: protein assay

Sequence of D(3) dopamine receptor (P35462 whole entry): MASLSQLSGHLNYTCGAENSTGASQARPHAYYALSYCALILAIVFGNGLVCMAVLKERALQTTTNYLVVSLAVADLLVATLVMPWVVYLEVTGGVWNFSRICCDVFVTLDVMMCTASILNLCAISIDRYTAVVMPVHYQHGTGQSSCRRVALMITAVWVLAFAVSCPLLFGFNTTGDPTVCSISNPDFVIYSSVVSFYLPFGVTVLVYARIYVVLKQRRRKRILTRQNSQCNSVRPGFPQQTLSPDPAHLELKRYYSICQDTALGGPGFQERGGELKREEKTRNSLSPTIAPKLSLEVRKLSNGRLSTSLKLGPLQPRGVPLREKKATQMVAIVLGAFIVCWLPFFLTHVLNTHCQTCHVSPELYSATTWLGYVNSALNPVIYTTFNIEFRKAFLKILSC

Structure (SMILES) | Ki (D(3) dopamine receptor) [µM] | Ki (D(2) dopamine receptor) [µM] | Selectivity [1]
CCS(=O)(=O)c1ccc(OC)c(-c2ccc(C(C)N3CCCCCC3)[nH]2)c1 (stereo not given) | 0.02 | 0.0794 | 4
CCS(=O)(=O)c1ccc(OC)c(-c2ccc(CN3CCCC3)[nH]2)c1 | 0.0631 | 0.251 | 4
CCS(=O)(=O)c1ccc(OC)c(-c2ccc(C(C)N3CCCC3)[nH]2)c1 (stereo not given) | 0.02 | 0.398 | 20
CCS(=O)(=O)c1ccc(OC)c(-c2ccc(CN3CCCCCC3)[nH]2)c1 | 0.0158 | 0.158 | 10
CCS(=O)(=O)c1ccc(OC)c(-c2ccc(CN3CCOCC3)[nH]2)c1 | 0.794 | 3.16 | 4
CCS(=O)(=O)c1ccc(OC)c(-c2ccc(CN3CCCCCCC3c3ccccc3)[nH]2)c1 (stereo not given) | 0.02 | 0.316 | 15
CCS(=O)(=O)c1ccc(OC)c(-c2ccc(CN3CCCCC3)[nH]2)c1 | 0.0251 | 0.158 | 6
CCN(CC)Cc1ccc(-c2cc(S(=O)(=O)CC)ccc2OC)[nH]1 | 0.0398 | 0.316 | 8

Now those with a lower Ki (D(3) dopamine receptor), led by results:

Ki (D(3) dopamine receptor) [µM] | Ki (D(2) dopamine receptor) [µM] | Selectivity [1] | Structure (SMILES)
0.00126 | 0.0126 | 10 | CCS(=O)(=O)c1ccc(OC)c(-c2ccc(CN3CCCCC3c3ccccc3)[nH]2)c1 (stereo not given)
0.002 | 0.00794 | 4 | CCN1CCCCCC1c1ccc(-c2cc(S(=O)(=O)CC)ccc2OC)[nH]1 (stereo not given)
0.000316 | 0.000794 | 3 | CCN(Cc1ccccc1)Cc1ccc(-c2cc(S(=O)(=O)CC)ccc2OC)[nH]1
0.01 | 0.316 | 30 | CCS(=O)(=O)c1ccc(OC)c(-c2ccc(C(C)N3CCCCC3)[nH]2)c1 (stereo not given)
0.00631 | 0.00631 |  | CCN1CCCC1CNC(=O)c1cc(S(=O)(=O)CC)ccc1OC (stereo not given) [SULTOPRIDE]
0.00126 | 0.0398 | 30 | CCS(=O)(=O)c1ccc(OC)c(-c2ccc(CN3CCCCCC3c3ccccc3)[nH]2)c1 (stereo not given)
0.002 | 0.00794 | 4 | CCN1CCCCC1c1ccc(-c2cc(S(=O)(=O)CC)ccc2OC)[nH]1 (stereo not given)
0.00501 | 0.0251 | 5 | CCN1CCCC1c1ccc(-c2cc(S(=O)(=O)CC)ccc2OC)[nH]1 (stereo not given)
0.001 | 0.0158 | 15 | CCS(=O)(=O)c1ccc(OC)c(-c2ccc(CN3CCCC3c3ccccc3)[nH]2)c1 (stereo not given)
